Data: PubChem BioAssay (NCI)
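Assay format: 96-well plates, 48-hour exposure. Abbreviation: GI50, concentration required for 50% inhibition of growth. Definition used: TGI = concentration required for complete inhibition of growth.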

What was measured:
Assay in all cases: inhibition of tumour cell growth, NCI panel, 48 h
ACHN renal = test system: ACHN renal
CAKI-1 renal = test system: CAKI-1 renal
CCRF-CEM leukemia = test system: CCRF-CEM leukemia
DU-145 prostate = test system: DU-145 prostate
HCT-116 colon = test system: HCT-116 colon
HL-60(TB) leukemia = test system: HL-60(TB) leukemia
IGROV1 ovarian = test system: IGROV1 ovarian
KM12 colon = test system: KM12 colon
RPMI-8226 leukemia = test system: RPMI-8226 leukemia
SK-MEL-5 melanoma = test system: SK-MEL-5 melanoma

COc1ccc(/C=N/C2=C(C#N)C(c3ccccc3)c3ccc4ccccc4c3O2)cc1 (centres undefined)
GI50 (ACHN renal): 690 nM | TGI (ACHN renal): > 100000 nM | GI50 (CAKI-1 renal): 224 nM | TGI (CAKI-1 renal): > 61800 nM | GI50 (CCRF-CEM leukemia): 377 nM | TGI (CCRF-CEM leukemia): > 100000 nM | GI50 (DU-145 prostate): 428 nM | TGI (DU-145 prostate): > 100000 nM | GI50 (HCT-116 colon): 402 nM | TGI (HCT-116 colon): > 37800 nM | GI50 (HL-60(TB) leukemia): 321 nM | TGI (HL-60(TB) leukemia): 1440 nM | GI50 (IGROV1 ovarian): 403 nM | TGI (IGROV1 ovarian): > 100000 nM | GI50 (KM12 colon): 397 nM | TGI (KM12 colon): > 100000 nM | GI50 (RPMI-8226 leukemia): 383 nM | TGI (RPMI-8226 leukemia): > 38000 nM | GI50 (SK-MEL-5 melanoma): 336 nM | TGI (SK-MEL-5 melanoma): 7950 nM

C=CCOc1ccc2c(c1)CC[C@@H]1[C@@H]2CC[C@]2(C)C(=O)/C(=N/O)C[C@@H]12
GI50 (ACHN renal): 2580 nM | TGI (ACHN renal): > 37200 nM | GI50 (CAKI-1 renal): 1900 nM | TGI (CAKI-1 renal): > 100000 nM | GI50 (CCRF-CEM leukemia): 2510 nM | TGI (CCRF-CEM leukemia): 8670 nM | GI50 (DU-145 prostate): 3100 nM | TGI (DU-145 prostate): 15600 nM | GI50 (HCT-116 colon): 2040 nM | TGI (HCT-116 colon): 6820 nM | GI50 (HL-60(TB) leukemia): 440 nM | TGI (HL-60(TB) leukemia): 6250 nM | GI50 (IGROV1 ovarian): 3420 nM | TGI (IGROV1 ovarian): 14200 nM | GI50 (KM12 colon): 3270 nM | TGI (KM12 colon): 11200 nM | GI50 (RPMI-8226 leukemia): 2740 nM | TGI (RPMI-8226 leukemia): 9350 nM | GI50 (SK-MEL-5 melanoma): 11600 nM | TGI (SK-MEL-5 melanoma): 25700 nM

COc1ccc(-c2nn(C(=O)c3cc(OC)c(OC)c(OC)c3)c3cc(N)ccc23)cc1
GI50 (ACHN renal): < 15.1 nM | TGI (ACHN renal): 2670 nM | GI50 (CAKI-1 renal): 14.5 nM | TGI (CAKI-1 renal): 8390 nM | GI50 (CCRF-CEM leukemia): 24.9 nM | TGI (CCRF-CEM leukemia): 14300 nM | GI50 (DU-145 prostate): < 13 nM | TGI (DU-145 prostate): 345 nM | GI50 (HCT-116 colon): < 10 nM | TGI (HCT-116 colon): 1450 nM | GI50 (HL-60(TB) leukemia): < 12.1 nM | TGI (HL-60(TB) leukemia): < 22 nM | GI50 (IGROV1 ovarian): 20.7 nM | TGI (IGROV1 ovarian): 15900 nM | GI50 (KM12 colon): < 10 nM | TGI (KM12 colon): 1830 nM | GI50 (RPMI-8226 leukemia): < 18 nM | TGI (RPMI-8226 leukemia): 1840 nM | GI50 (SK-MEL-5 melanoma): < 14.5 nM | TGI (SK-MEL-5 melanoma): 45.3 nM

COc1cc(Nc2nccc(-c3cnn4ncccc34)n2)cc(OC)c1
GI50 (ACHN renal): 56.5 nM | TGI (ACHN renal): 4160 nM | GI50 (CAKI-1 renal): 70.3 nM | TGI (CAKI-1 renal): 4020 nM | GI50 (CCRF-CEM leukemia): 66.8 nM | GI50 (DU-145 prostate): 72.4 nM | TGI (DU-145 prostate): 2820 nM | GI50 (HCT-116 colon): 43.9 nM | TGI (HCT-116 colon): > 14900 nM | GI50 (HL-60(TB) leukemia): 36.2 nM | TGI (HL-60(TB) leukemia): 120 nM | GI50 (IGROV1 ovarian): 91.6 nM | TGI (IGROV1 ovarian): > 23900 nM | GI50 (KM12 colon): 34.9 nM | TGI (KM12 colon): 272 nM | GI50 (RPMI-8226 leukemia): 86.2 nM | TGI (RPMI-8226 leukemia): 388 nM | GI50 (SK-MEL-5 melanoma): 151 nM | TGI (SK-MEL-5 melanoma): 3190 nM

CCc1cc(Cc2cc(CC)cc(C(C)(C)C)c2O)c(O)c(C(C)(C)C)c1
GI50 (ACHN renal): 3270 nM | TGI (ACHN renal): 10400 nM | GI50 (CAKI-1 renal): 1920 nM | TGI (CAKI-1 renal): 5750 nM | GI50 (CCRF-CEM leukemia): 5160 nM | TGI (CCRF-CEM leukemia): > 100000 nM | GI50 (DU-145 prostate): 3530 nM | TGI (DU-145 prostate): 13000 nM | GI50 (HCT-116 colon): 2090 nM | TGI (HCT-116 colon): 5820 nM | GI50 (HL-60(TB) leukemia): 4420 nM | TGI (HL-60(TB) leukemia): > 100000 nM | GI50 (IGROV1 ovarian): 2530 nM | TGI (IGROV1 ovarian): 8050 nM | GI50 (KM12 colon): 2280 nM | TGI (KM12 colon): 6350 nM | GI50 (RPMI-8226 leukemia): 3350 nM | TGI (RPMI-8226 leukemia): 28400 nM | GI50 (SK-MEL-5 melanoma): 3630 nM | TGI (SK-MEL-5 melanoma): 12700 nM

COc1cc(-c2nc3cc(Cl)c(Cl)cc3[nH]2)ccc1OCC(=O)N=Nc1c(O)[nH]c2ccccc12
GI50 (ACHN renal): 2110 nM | TGI (ACHN renal): 13800 nM | GI50 (CAKI-1 renal): 1450 nM | TGI (CAKI-1 renal): 2940 nM | GI50 (CCRF-CEM leukemia): 322 nM | TGI (CCRF-CEM leukemia): 17500 nM | GI50 (DU-145 prostate): 501 nM | TGI (DU-145 prostate): 1900 nM | GI50 (HCT-116 colon): 445 nM | TGI (HCT-116 colon): 1550 nM | GI50 (HL-60(TB) leukemia): 392 nM | TGI (HL-60(TB) leukemia): 2220 nM | GI50 (IGROV1 ovarian): 313 nM | TGI (IGROV1 ovarian): 1010 nM | GI50 (KM12 colon): 1070 nM | TGI (KM12 colon): 3190 nM | GI50 (RPMI-8226 leukemia): 645 nM | TGI (RPMI-8226 leukemia): 3350 nM | GI50 (SK-MEL-5 melanoma): 541 nM | TGI (SK-MEL-5 melanoma): 1760 nM
